In this data set the test system is CCRIS mutagenicity, Ames/micronucleus/aberration tests. Nature of the data set: CCRIS mutagenicity studies.
Setting [1] is: Test System: AMES SALMONELLA TYPHIMURIUM, Strain/Indicator: TA98, Metabolic Activation: NONE, Method: PREINCUBATION
Setting [2] is: Test System: AMES SALMONELLA TYPHIMURIUM, Strain/Indicator: TA98, Metabolic Activation: NONE, Method: STANDARD PLATE.
Where [3] appears, read: Test System: AMES SALMONELLA TYPHIMURIUM, Strain/Indicator: TA100, Metabolic Activation: NONE, Method: PREINCUBATION
The mark [4] stands for this setting: Test System: AMES SALMONELLA TYPHIMURIUM, Strain/Indicator: TA100, Metabolic Activation: NONE, Method: STANDARD PLATE.
Setting [5] is: Test System: AMES SALMONELLA TYPHIMURIUM, Strain/Indicator: TA97, Metabolic Activation: NONE, Method: PREINCUBATION
The mark [6] stands for this setting: Test System: AMES SALMONELLA TYPHIMURIUM, Strain/Indicator: TA100, Metabolic Activation: RAT, LIVER, S-9, AROCLOR 1254, Method: STANDARD PLATE.

SMILES strings stand for the structures. Activity calls are given as the source filed them. The rule behind the calls is not given here.

Mutagenic call data for eleven compounds are collected here from PubChem BioAssay AID1259407 (Chemical Carcinogenesis Research Information System (CCRIS), 2018).

For the compound `Nc1ccc(S(=O)(=O)c2ccc(N)cc2)cc1`, the mutagenic call under setting [1] is “inactive; negative”; the mutagenic call under setting [2] is “inactive; negative”; the mutagenic call (Test System: AMES SALMONELLA TYPHIMURIUM, Strain/Indicator: TA98, Metabolic Activation: RAT, LIVER, S-9, PCB, Method: STANDARD PLATE) was “inactive; negative”; the mutagenic call under setting [3] is “inactive; negative”; the mutagenic call under setting [4] is “inactive; negative”; the mutagenic call (Test System: AMES SALMONELLA TYPHIMURIUM, Strain/Indicator: TA100, Metabolic Activation: RAT, LIVER, S-9, PCB, Method: STANDARD PLATE) is “inactive; negative”. Also, the mutagenic call (Test System: E. COLI, Strain/Indicator: WP2 UVRA, Metabolic Activation: HAMSTER, LIVER, S-9, AROCLOR 1254, Method: STANDARD PLATE) is “inactive; negative”; the mutagenic call (Test System: E. COLI, Strain/Indicator: WP2 UVRA, Metabolic Activation: HAMSTER, LIVER, S-9, Method: STANDARD PLATE) was “inactive; negative”; the mutagenic call (Test System: E. COLI, Strain/Indicator: WP2 UVRA, Metabolic Activation: MOUSE, LIVER, S-9, AROCLOR 1254, Method: STANDARD PLATE) is “inactive; negative”; the mutagenic call (Test System: E. COLI, Strain/Indicator: WP2 UVRA, Metabolic Activation: MOUSE, LIVER, S-9, Method: STANDARD PLATE) was “inactive; negative”; the mutagenic call (Test System: E. COLI, Strain/Indicator: WP2 UVRA, Metabolic Activation: NONE, Method: STANDARD PLATE) was “inactive; negative”; the mutagenic call (Test System: E. COLI, Strain/Indicator: WP2 UVRA, Metabolic Activation: RAT, LIVER, S-9, AROCLOR 1254, Method: STANDARD PLATE) was “inactive; negative”. In addition, where the note is “Test System: E. COLI, Strain/Indicator: WP2 UVRA, Metabolic Activation: RAT, LIVER, S-9, Method: STANDARD PLATE”, the mutagenic call is “inactive; negative”.

Consider `O=C1NC(=O)C(Cl)=C1Cl`, for which, under setting [4], the mutagenic call is “active; positive”.

In the case of `CCOC(=O)CCl`, the mutagenic call is, setting by setting: (Test System: AMES SALMONELLA TYPHIMURIUM, Strain/Indicator: TA102, Metabolic Activation: NONE, Method: STANDARD PLATE) “inactive; negative”; (Test System: AMES SALMONELLA TYPHIMURIUM, Strain/Indicator: TA2638, Metabolic Activation: NONE, Method: STANDARD PLATE) “inactive; negative”; (Test System: E. COLI, Strain/Indicator: WP2 (PKM101), Metabolic Activation: NONE, Method: STANDARD PLATE) “inactive; negative”; (Test System: E. COLI, Strain/Indicator: WP2 UVRA (PKM101), Metabolic Activation: NONE, Method: STANDARD PLATE) “inactive; negative”.

`CC(=O)NSc1c2cc(O)ccc2nc2ccc(O)cc12`: under “Test System: AMES SALMONELLA TYPHIMURIUM, Strain/Indicator: TA97A, Metabolic Activation: NONE, Method: PREINCUBATION”, the mutagenic call is “active; positive”.

As to `CCN(CC)c1ccc(C(=C2C=CC(=[N+](CC)CC)C=C2)c2ccccc2)cc1`, for the setting “Test System: AMES SALMONELLA TYPHIMURIUM, Strain/Indicator: TA100, Method: PREINCUBATION”, the mutagenic call is “active; positive”.

With `Cc1c2c(cc3ccccc13)-c1ccccc1C1NC21` (stereo not drawn), the mutagenic call under setting [5] is “active; positive”; the mutagenic call under setting [1] is “active; positive”; the mutagenic call under setting [2] is “active; positive”; the mutagenic call under setting [4] was “active; positive”; the mutagenic call (Test System: AMES SALMONELLA TYPHIMURIUM, Strain/Indicator: TA104, Metabolic Activation: NONE, Method: PREINCUBATION) was “active; positive”.

For `C=CC(=O)NCNC(=O)C=C`, the mutagenic call was “inactive; negative” (Test System: AMES SALMONELLA TYPHIMURIUM, Strain/Indicator: TA97, Metabolic Activation: HAMSTER, LIVER, S-9, AROCLOR 1254 (10%), Method: PREINCUBATION); “inactive; negative” under setting [5]; “inactive; negative” (Test System: AMES SALMONELLA TYPHIMURIUM, Strain/Indicator: TA97, Metabolic Activation: RAT, LIVER, S-9, AROCLOR 1254 (10%), Method: PREINCUBATION); “inactive; negative” (Test System: AMES SALMONELLA TYPHIMURIUM, Strain/Indicator: TA98, Metabolic Activation: HAMSTER, LIVER, S-9, AROCLOR 1254 (10%), Method: PREINCUBATION); “inactive; negative” under setting [1]; “inactive; negative” (Test System: AMES SALMONELLA TYPHIMURIUM, Strain/Indicator: TA98, Metabolic Activation: RAT, LIVER, S-9, AROCLOR 1254 (10%), Method: PREINCUBATION). Moreover, the mutagenic call runs as follows: (Test System: AMES SALMONELLA TYPHIMURIUM, Strain/Indicator: TA100, Metabolic Activation: HAMSTER, LIVER, S-9, AROCLOR 1254 (5, 10 OR 30%), Method: PREINCUBATION) “inactive; negative”; under setting [3], “inactive; negative”; (Test System: AMES SALMONELLA TYPHIMURIUM, Strain/Indicator: TA100, Metabolic Activation: RAT, LIVER, S-9, AROCLOR 1254 (10%), Method: PREINCUBATION) “inactive; negative”; (Test System: AMES SALMONELLA TYPHIMURIUM, Strain/Indicator: TA1535, Metabolic Activation: HAMSTER, LIVER, S-9, AROCLOR 1254 (10%), Method: PREINCUBATION) “active; positive”; (Test System: AMES SALMONELLA TYPHIMURIUM, Strain/Indicator: TA1535, Metabolic Activation: NONE, Method: PREINCUBATION) “inactive; negative”; (Test System: AMES SALMONELLA TYPHIMURIUM, Strain/Indicator: TA1535, Metabolic Activation: RAT, LIVER, S-9, AROCLOR 1254 (10%), Method: PREINCUBATION) “inactive; negative”.

Turning to `OC1C2OC2=C2C=c3ccc4cccc5ccc(c3c54)C2C1O` (stereo not drawn), the mutagenic call (Test System: CHINESE HAMSTER V-79, Strain/Indicator: V-79/8-AZAGUANINE, Metabolic Activation: NONE, Method: STANDARD PLATE) is “active; positive”.

Turning to `Cc1ccc2c(c1)c(=NC(=O)c1ccc([N+](=O)[O-])cc1)sn2C(=O)c1ccc([N+](=O)[O-])cc1`, for the setting “Test System: AMES SALMONELLA TYPHIMURIUM, Strain/Indicator: TA100, Metabolic Activation: S-9, Method: STANDARD PLATE”, the mutagenic call is “active; positive”.

`CCCOc1cc2c(c3ccc4ccccc4c13)CCC2=O`: under setting [6], the mutagenic call is “inactive; negative”.

With `O=[N+]([O-])O[C@H]1CO[C@H]2[C@@H]1OC[C@H]2O[N+](=O)[O-]`, the mutagenic call runs as follows: under setting [2], “inactive; negative”; (Test System: AMES SALMONELLA TYPHIMURIUM, Strain/Indicator: TA98, Metabolic Activation: RAT, LIVER, S-9, AROCLOR 1254, Method: STANDARD PLATE) “inactive; negative”; under setting [4], “inactive; negative”; under setting [6], “inactive; negative”; (Test System: AMES SALMONELLA TYPHIMURIUM, Strain/Indicator: TA1535, Metabolic Activation: NONE, Method: STANDARD PLATE) “inactive; negative”; (Test System: AMES SALMONELLA TYPHIMURIUM, Strain/Indicator: TA1535, Metabolic Activation: RAT, LIVER, S-9, AROCLOR 1254, Method: STANDARD PLATE) “inactive; negative”. The mutagenic call was “inactive; negative” (Test System: AMES SALMONELLA TYPHIMURIUM, Strain/Indicator: TA1537, Metabolic Activation: NONE, Method: STANDARD PLATE) and “inactive; negative” (Test System: AMES SALMONELLA TYPHIMURIUM, Strain/Indicator: TA1537, Metabolic Activation: RAT, LIVER, S-9, AROCLOR 1254, Method: STANDARD PLATE).
